Experimental data taken from patent US8916565B2, “Pyrrolopyrazine-spirocyclic piperidine amides as modulators of ion channels” (priority 2011, dated 2014).

biological target: human NaV subtype, like NaV 1.7 (Homo sapiens, UniProt Q15858); assay: E-VIPR optical membrane potential assay with electrical stimulation; format: cell-based; conditions: active against one or more sodium channels; Table 3 does not name the assay or NaV subtype; read-out: Binned Activity Data (IC50)
Sequence (Q15858 whole entry): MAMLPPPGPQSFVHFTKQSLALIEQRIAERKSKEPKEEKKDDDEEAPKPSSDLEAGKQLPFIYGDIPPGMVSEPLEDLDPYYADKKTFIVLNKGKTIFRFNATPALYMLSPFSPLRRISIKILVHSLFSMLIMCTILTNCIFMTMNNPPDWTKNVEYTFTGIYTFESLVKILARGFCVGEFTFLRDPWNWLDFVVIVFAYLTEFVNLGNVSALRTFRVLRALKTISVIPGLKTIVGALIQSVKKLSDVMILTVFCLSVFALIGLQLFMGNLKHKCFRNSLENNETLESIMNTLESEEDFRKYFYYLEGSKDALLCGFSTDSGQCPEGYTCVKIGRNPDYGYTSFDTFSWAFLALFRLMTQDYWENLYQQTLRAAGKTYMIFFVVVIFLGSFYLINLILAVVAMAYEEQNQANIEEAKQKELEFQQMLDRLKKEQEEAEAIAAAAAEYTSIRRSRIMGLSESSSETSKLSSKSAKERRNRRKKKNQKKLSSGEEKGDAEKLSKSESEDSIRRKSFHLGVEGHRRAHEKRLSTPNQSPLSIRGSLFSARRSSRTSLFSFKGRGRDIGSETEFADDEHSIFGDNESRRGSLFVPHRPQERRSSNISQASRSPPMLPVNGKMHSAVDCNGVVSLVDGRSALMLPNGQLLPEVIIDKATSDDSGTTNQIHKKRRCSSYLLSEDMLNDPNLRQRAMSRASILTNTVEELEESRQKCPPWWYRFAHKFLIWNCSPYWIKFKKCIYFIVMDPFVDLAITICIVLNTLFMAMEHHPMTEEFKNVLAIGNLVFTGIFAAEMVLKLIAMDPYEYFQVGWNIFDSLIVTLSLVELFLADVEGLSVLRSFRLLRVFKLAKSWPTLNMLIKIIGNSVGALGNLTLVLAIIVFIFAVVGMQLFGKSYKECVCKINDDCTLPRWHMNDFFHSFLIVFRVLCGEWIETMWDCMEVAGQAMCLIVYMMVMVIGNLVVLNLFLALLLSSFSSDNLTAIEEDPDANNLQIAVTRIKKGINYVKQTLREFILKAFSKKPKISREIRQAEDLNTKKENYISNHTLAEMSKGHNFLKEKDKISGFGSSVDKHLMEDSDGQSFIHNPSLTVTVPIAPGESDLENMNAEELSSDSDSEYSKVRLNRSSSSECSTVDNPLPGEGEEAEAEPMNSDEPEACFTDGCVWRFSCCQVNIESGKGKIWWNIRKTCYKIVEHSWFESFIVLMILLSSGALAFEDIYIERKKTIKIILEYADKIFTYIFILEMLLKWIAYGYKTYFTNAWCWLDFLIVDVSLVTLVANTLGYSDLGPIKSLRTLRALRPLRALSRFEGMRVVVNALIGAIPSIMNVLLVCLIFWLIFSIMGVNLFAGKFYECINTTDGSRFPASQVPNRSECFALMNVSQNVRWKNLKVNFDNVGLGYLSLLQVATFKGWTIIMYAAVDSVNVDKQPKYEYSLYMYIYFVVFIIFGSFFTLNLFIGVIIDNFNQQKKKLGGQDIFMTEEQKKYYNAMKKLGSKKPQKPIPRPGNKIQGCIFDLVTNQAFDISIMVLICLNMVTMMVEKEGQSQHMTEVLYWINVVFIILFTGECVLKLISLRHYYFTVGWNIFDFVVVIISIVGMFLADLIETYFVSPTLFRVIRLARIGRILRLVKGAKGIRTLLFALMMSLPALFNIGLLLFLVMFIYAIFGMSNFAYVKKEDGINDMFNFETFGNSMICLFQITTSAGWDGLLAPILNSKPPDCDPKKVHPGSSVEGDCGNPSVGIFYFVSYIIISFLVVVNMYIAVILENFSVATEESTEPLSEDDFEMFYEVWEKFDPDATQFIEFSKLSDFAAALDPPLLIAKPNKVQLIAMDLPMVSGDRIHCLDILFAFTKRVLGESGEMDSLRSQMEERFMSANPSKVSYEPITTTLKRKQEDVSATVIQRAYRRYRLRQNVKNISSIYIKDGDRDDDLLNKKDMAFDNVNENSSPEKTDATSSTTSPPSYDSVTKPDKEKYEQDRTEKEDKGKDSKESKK

COc1ccc(C(=O)N2CCC3(CC2)c2ccc(C(=O)C(F)(F)F)n2C(C)CN3C)cc1C (centres unmarked) [Compound 164] and CNS(=O)(=O)c1ccc(C(=O)N2CCC3(CC2)c2ccc(C(=O)C(F)(F)F)n2CCN3C)cc1C [Compound 194] cannot be ordered by IC50: ≤ 2000 nM for the first, ≤ 2000 nM for the second.

COc1cc(C(=O)N2CCC3(CC2)NC(C)(C)Cn2c(C(=O)C(F)(F)F)ccc23)ccc1COCC(F)(F)F [Compound 467] and C[C@H]1Cn2c(C(=O)C(F)(F)F)ccc2C2(CCN(C(=O)c3ccc(COCCC(F)(F)F)cc3)CC2)N1C [Compound 449] cannot be ordered by IC50: ≤ 2000 nM for the first, ≤ 2000 nM for the second.

CN1CCn2c(Cl)ccc2C12CCN(C(=O)c1ccc(OCC(F)(F)F)cc1)CC2 [Compound 330] and CN1CCn2c(C(=O)C(F)(F)F)ccc2C12CCN(C(=O)c1ccc(C(C)(C)O)cc1)CC2 [Compound 358] fall in the same range of IC50: 2000 to 5000 nM for the first, 2000 to 5000 nM for the second.

Compared with Cc1cc(C(=O)N2CCC3(CC2)c2ccc(C(=O)C(F)(F)F)n2CCN3C)ccc1-c1ccn(C)n1 [Compound 295], CN1CCn2c(C(=O)C(F)(F)F)ccc2C12CCN(C(=O)c1ccc(N3CCCCC3)cc1)CC2 [Compound 582] is lower in IC50: > 5000 nM for the first, ≤ 2000 nM for the second. The second is the more potent here.

First: CCN(CC)c1ncccc1C(=O)N1CCC2(CC1)c1ccc(C(F)(F)F)n1CCN2C [Compound 684]
Second: Cc1ccnc2c(C(=O)N3CCC4(CC3)c3ccc(C(F)(F)F)n3CCN4C)cnn12 [Compound 731]
The IC50 of the first is higher: > 5000 nM for the first, 2000 to 5000 nM for the second.

CCCCOc1cc(C(=O)N2CCC3(CC2)c2ccc(C(F)(F)F)n2CCN3C)ccc1OC [Compound 212] and COc1cc(C(=O)N2CCC3(CC2)c2ccc(C(=O)C(C)C)n2CCN3C)ccc1OC(C)C [Compound 144] cannot be ordered by IC50: ≤ 2000 nM for the first, ≤ 2000 nM for the second.

Cc1cc(C(=O)N2CCC3(CC2)c2ccc(C(F)(F)F)n2CCN3C(=O)N(C)C)ccc1OC(C)C [Compound 138] and CN1CCn2c(ccc2C(F)(F)C(F)(F)F)C12CCN(C(=O)c1ccc(C(C)(C)O)cc1)CC2 [Compound 743] cannot be ordered by IC50: ≤ 2000 nM for the first, ≤ 2000 nM for the second.
